Measurements reported in patent publication US11453647B2, “Benzimidazole derivatives as adenosine receptor antagonists” (Merck Patent GmbH, priority 2017, dated 2022).
Blank lines part the entries; values can stand above or below the compound they belong to.

Key:
Type in all cases: cell-based
[1] = molecular target: T1, A2B receptors (Homo sapiens, UniProt P29275); experiment: functional cAMP (HTRF) assay, recombinant HEK293 cells expressing human A2B receptor, agonist NECA; parameters: expressed in transfected cells; host or cells: HEK293
T1 sequence (P29275 1-332): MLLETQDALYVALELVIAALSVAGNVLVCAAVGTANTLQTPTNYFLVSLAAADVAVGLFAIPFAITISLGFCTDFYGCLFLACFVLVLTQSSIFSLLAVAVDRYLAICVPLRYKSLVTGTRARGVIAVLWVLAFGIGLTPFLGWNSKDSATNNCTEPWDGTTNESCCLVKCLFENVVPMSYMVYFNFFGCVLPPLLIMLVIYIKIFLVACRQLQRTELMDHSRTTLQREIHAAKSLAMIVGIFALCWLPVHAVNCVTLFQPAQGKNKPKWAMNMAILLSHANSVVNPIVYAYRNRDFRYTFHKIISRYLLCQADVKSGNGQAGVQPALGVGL

[2] = molecular target: T2, human A3 receptor (Homo sapiens, UniProt P0DMS8); experiment: functional cAMP (HTRF) assay, recombinant CHO cells expressing human A3 receptor, forskolin, agonist IB-MECA
T2 construct: expressed in transfected cells; host or cells: CHO
T2 sequence (P0DMS8 1-318): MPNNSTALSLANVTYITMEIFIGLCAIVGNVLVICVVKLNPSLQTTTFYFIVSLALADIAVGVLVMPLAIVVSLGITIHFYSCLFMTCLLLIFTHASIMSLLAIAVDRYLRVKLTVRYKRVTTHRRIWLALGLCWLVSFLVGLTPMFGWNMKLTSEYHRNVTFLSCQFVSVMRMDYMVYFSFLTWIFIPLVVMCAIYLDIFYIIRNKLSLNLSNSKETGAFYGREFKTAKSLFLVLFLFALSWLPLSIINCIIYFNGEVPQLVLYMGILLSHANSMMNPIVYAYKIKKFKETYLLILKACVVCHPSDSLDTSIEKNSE
How it was run: (§1)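 CHO cells (hA1 or hA3) + forskolin + test cpd + agonist (CPA/A1, IB-MECA/A3), 30 min; HTRF cAMP readout; normalized vs inhibitor and DMSO controls, curve fit.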

[3] = molecular target: T3, human A2A receptor (Homo sapiens, UniProt P29274); experiment: functional cAMP (HTRF) assay, recombinant HEK293 cells expressing human A2A receptor, agonist NECA
T3 construct: expressed in transfected cells; host or cells: HEK293

[4] = molecular target: T4, human A1 receptor (Homo sapiens, UniProt P30542); experiment: functional cAMP (HTRF) assay, recombinant CHO cells expressing human A1 receptor, forskolin, agonist CPA
T4 construct: expressed in transfected cells; host or cells: CHO
T4 sequence (P30542 1-326): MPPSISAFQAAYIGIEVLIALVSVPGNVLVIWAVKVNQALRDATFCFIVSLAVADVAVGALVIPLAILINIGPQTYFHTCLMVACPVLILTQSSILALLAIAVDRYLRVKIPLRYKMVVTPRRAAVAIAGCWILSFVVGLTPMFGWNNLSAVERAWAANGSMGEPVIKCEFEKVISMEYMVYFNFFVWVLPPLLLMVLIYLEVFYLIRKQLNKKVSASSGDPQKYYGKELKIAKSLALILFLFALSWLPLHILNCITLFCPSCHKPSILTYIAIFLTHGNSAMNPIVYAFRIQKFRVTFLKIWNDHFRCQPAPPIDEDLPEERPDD
How it was run: as §1

T3 sequence (P29274 whole entry): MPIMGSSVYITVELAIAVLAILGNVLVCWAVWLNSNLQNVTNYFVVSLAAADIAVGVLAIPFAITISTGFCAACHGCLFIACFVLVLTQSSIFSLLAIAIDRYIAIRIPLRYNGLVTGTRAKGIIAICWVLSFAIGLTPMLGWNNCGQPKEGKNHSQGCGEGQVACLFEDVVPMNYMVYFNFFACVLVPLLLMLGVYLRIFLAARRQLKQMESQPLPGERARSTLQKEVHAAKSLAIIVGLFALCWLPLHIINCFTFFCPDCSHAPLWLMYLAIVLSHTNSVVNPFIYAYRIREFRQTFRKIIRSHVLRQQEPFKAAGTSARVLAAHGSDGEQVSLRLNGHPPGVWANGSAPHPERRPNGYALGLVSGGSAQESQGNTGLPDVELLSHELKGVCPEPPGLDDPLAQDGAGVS

- IC50 [1]: < 1000 nM
- IC50 [2]: < 1000 nM
- IC50 [3]: < 10 nM
- IC50 [4]: > 1000 nM
SMILES: COCCn1cc(C(=O)Nc2nc3c(-c4cnn(C)c4)ccc(OC)c3[nH]2)cn1 [compound 161, N-[7-methoxy-4-(1-methyl-1H-pyrazol-4-yl)-1H-1,3-benzodiazol-2-yl]-1-(2-methoxyethyl)-1H-pyrazole-4-carboxamide]

- IC50 [1]: < 1000 nM
- IC50 [2]: > 1000 nM
- IC50 [3]: < 100 nM
- IC50 [4]: > 1000 nM
SMILES: COc1ccc(-c2cnn(C)c2)c2nc(NC(=O)c3ccc(C(=O)N(C)C)nc3)[nH]c12 [compound 162, N5-[7-methoxy-4-(1-methyl-1H-pyrazol-4-yl)-1H-1,3-benzodiazo1-2-yl]-N2,N2-dimethylpyridine-2,5-dicarboxamide]

- IC50 [1]: < 1000 nM
- IC50 [2]: < 10 nM
- IC50 [3]: < 10 nM
- IC50 [4]: < 1000 nM
SMILES: COc1ccc(-c2cnn(C)c2)c2nc(NC(=O)c3cnc(C)s3)[nH]c12 [compound 165, N-[7-methoxy-4-(1-methyl-1H-pyrazol-4-yl)-1H-1,3-benzodiazol-2-yl]-2-methyl-1,3-thiazole-5-carboxamide]

- IC50 [1]: > 1000 nM
- IC50 [2]: < 1000 nM
- IC50 [3]: < 10 nM
- IC50 [4]: > 1000 nM
SMILES: COc1ccc(-c2cnn(C)c2)c2nc(NC(=O)c3ccc(CN4CCN(C)CC4)cc3)[nH]c12 [compound 168, N-[7-methoxy-4-(1-methyl-1H-pyrazol-4-yl)-1H-1,3-benzodiazol-2-yl]-4-[(4-methylpiperazin-1-yl)methyl]benzamide]

- IC50 [1]: < 100 nM
- IC50 [2]: > 1000 nM
- IC50 [3]: < 10 nM
- IC50 [4]: < 1000 nM
SMILES: COc1ccc(-c2cccc(F)c2)c2nc(NC(=O)N3CCC(C)(O)CC3)[nH]c12 [compound 217, N-[4-(3-fluorophenyl)-7-methoxy-1H-1,3-benzodiazol-2-yl]-4-hydroxy-4-methylpiperidine-1-carboxamide]

- IC50 [1]: < 100 nM
- IC50 [2]: > 1000 nM
- IC50 [3]: < 10 nM
- IC50 [4]: < 1000 nM
SMILES: COc1ccc(-c2ccccc2F)c2nc(NC(=O)N3CCC(C)(O)CC3)[nH]c12 [compound 218, N-[4-(2-fluorophenyl)-7-methoxy-1H-1,3-benzodiazol-2-yl]-4-hydroxy-4-methylpiperidine-1-carboxamide]

- IC50 [1]: < 100 nM
- IC50 [2]: > 1000 nM
- IC50 [3]: < 10 nM
- IC50 [4]: > 1000 nM
SMILES: COc1ccc(-c2cnn(C)c2)c2nc(NC(=O)N3CC[C@H](F)C3)[nH]c12 [compound 221, (3S)-3-fluoro-N-[7-methoxy-4-(1-methyl-1H-pyrazol-4-yl)-1H-1,3-benzodiazol-2-yl]pyrrolidine-1-carboxamide]

- IC50 [1]: < 100 nM
- IC50 [2]: < 1000 nM
- IC50 [3]: < 10 nM
- IC50 [4]: < 1000 nM
SMILES: COCCOc1cccc(-c2ccc(OC)c3nc(NC(=O)N4CCC(C)(O)CC4)[nH]c23)c1 [compound 236, 4-hydroxy-N-{4-methoxy-7-[3-(2-methoxyethoxy)phenyl]-1H-1,3-benzodiazol-2-yl}-4-methylpiperidine-1-carboxamide]

- IC50 [1]: < 100 nM
- IC50 [2]: < 1000 nM
- IC50 [3]: < 100 nM
- IC50 [4]: < 1000 nM
SMILES: COc1ccc(-c2cnn(Cc3cccnc3)c2)c2[nH]c(NC(=O)N3CCC(C)(O)CC3)nc12 [compound 237, 4-hydroxy-N-(4-methoxy-7-{1-[(pyridin-3-yl)methyl]-1H-pyrazol-4-yl}-1H-1,3-benzodiazol-2-yl)-4-methylpiperidine-1-carboxamide]

- IC50 [1]: < 100 nM
- IC50 [2]: > 1000 nM
- IC50 [3]: < 10 nM
- IC50 [4]: > 1000 nM
SMILES: COc1ccc(-c2cccnc2)c2[nH]c(NC(=O)c3c[nH]cn3)nc12 [compound 268, N-[4-methoxy-7-(pyridin-3-yl)-1H-1,3-benzodiazol-2-yl]-1H-imidazole-4-carboxamide]

The next lines start with the compound.

SMILES: COc1ccc(C2CCOCC2)c2nc(NC(=O)c3cnn(C)c3)[nH]c12 [compound 224, N-[7-methoxy-4-(oxan-4-yl)-1H-1,3-benzodiazol-2-yl]-1-methyl-1H-pyrazole-4-carboxamide]
- IC50 [1]: < 100 nM
- IC50 [2]: < 1000 nM
- IC50 [3]: < 10 nM
- IC50 [4]: > 1000 nM

SMILES: COCCn1cc(C(=O)Nc2nc3c(C4CCOCC4)ccc(OC)c3[nH]2)cn1 [compound 225, N-[7-methoxy-4-(oxan-4-yl)-1H-1,3-benzodiazol-2-yl]-1-(2-methoxyethyl)-1H-pyrazole-4-carboxamide]
- IC50 [1]: < 100 nM
- IC50 [2]: > 1000 nM
- IC50 [3]: < 10 nM
- IC50 [4]: > 1000 nM

SMILES: COc1ccc(-c2cccc(F)c2)c2nc(NC(=O)c3ccc(C(=O)N(C)C)cc3)[nH]c12 [compound 240, N4-[4-(3-fluorophenyl)-7-methoxy-1H-1,3-benzodiazol-2-yl]-N1,N1-dimethylbenzene-1,4-dicarboxamide]
- IC50 [1]: < 10 nM
- IC50 [2]: < 1000 nM
- IC50 [3]: < 10 nM
- IC50 [4]: < 1000 nM

SMILES: COc1ccc(-c2ccccc2F)c2nc(NC(=O)c3ccc(C(=O)N(C)C)cc3)[nH]c12 [compound 242, N4-[4-(2-fluorophenyl)-7-methoxy-1H-1,3-benzodiazol-2-yl]-N1,N1-dimethylbenzene-1,4-dicarboxamide]
- IC50 [1]: < 10 nM
- IC50 [2]: < 1000 nM
- IC50 [3]: < 10 nM
- IC50 [4]: < 1000 nM

SMILES: COc1ccc(-c2cnn(C)c2)c2nc(NC(=O)c3ccc(N4C(=O)CCC4=O)cc3)[nH]c12 [compound 248, 4-(2,5-dioxopyrrolidin-1-yl)-N-[7-methoxy-4-(1-methyl-1H-pyrazol-4-yl)-1H-1,3-benzodiazol-2-yl]benzamide]
- IC50 [1]: < 100 nM
- IC50 [2]: > 1000 nM
- IC50 [3]: < 10 nM
- IC50 [4]: > 1000 nM

SMILES: COc1ccc(-c2ccccc2)c2nc(NC(=O)c3c[nH]cn3)[nH]c12 [compound 253, N-(7-methoxy-4-phenyl-1H-1,3-benzodiazol-2-yl)-1H-imidazole-4-carboxamide]
- IC50 [1]: < 10 nM
- IC50 [2]: < 1000 nM
- IC50 [3]: < 10 nM
- IC50 [4]: < 1000 nM

SMILES: COc1ccc(-c2ccccc2)c2nc(NC(=O)c3c[nH]c(C)n3)[nH]c12 [compound 255, N-(7-methoxy-4-phenyl-1H-1,3-benzodiazol-2-yl)-2-methyl-1H-imidazole-4-carboxamide]
- IC50 [1]: < 10 nM
- IC50 [2]: < 1000 nM
- IC50 [3]: < 10 nM
- IC50 [4]: < 1000 nM

SMILES: COc1ccc(-c2cccnc2)c2nc(NC(=O)c3ccc(C(=O)N(C)C)cc3)[nH]c12 [compound 259, N4-[7-methoxy-4-(pyridin-3-yl)-1H-1,3-benzodiazol-2-yl]-N1,N1-dimethylbenzene-1,4-dicarboxamide]
- IC50 [1]: < 10 nM
- IC50 [2]: > 1000 nM
- IC50 [3]: < 10 nM
- IC50 [4]: < 1000 nM

SMILES: COc1ccc(C2=CCOC2)c2nc(NC(=O)c3ccc(C(=O)N(C)C)cc3)[nH]c12 [compound 261, N4-[4-(2,5-dihydrofuran-3-yl)-7-methoxy-1H-1,3-benzodiazol-2-yl]-N1,N1-dimethylbenzene-1,4-dicarboxamide]
- IC50 [1]: < 10 nM
- IC50 [2]: < 1000 nM
- IC50 [3]: < 10 nM
- IC50 [4]: > 1000 nM

SMILES: COc1cc(F)c(C2=CCOCC2)c2nc(NC(=O)c3ccc(C(=O)N(C)C)cc3)[nH]c12 [compound 262, N4-[4-(3,6-dihydro-2H-pyran-4-yl)-5-fluoro-7-methoxy-1H-1,3-benzodiazol-2-yl]-N1,N1-dimethylbenzene-1,4-dicarboxamide]
- IC50 [1]: < 10 nM
- IC50 [2]: < 1000 nM
- IC50 [3]: < 10 nM
- IC50 [4]: > 1000 nM

SMILES: COc1cc(F)c(C2=CCOCC2)c2nc(NC(=O)c3cnn(C)c3)[nH]c12 [compound 264, N-[4-(3,6-dihydro-2H-pyran-4-yl)-5-fluoro-7-methoxy-1H-1,3-benzodiazol-2-yl]-1-methyl-1H-pyrazole-4-carboxamide]
- IC50 [1]: < 100 nM
- IC50 [2]: < 1000 nM
- IC50 [3]: < 10 nM
- IC50 [4]: > 1000 nM

SMILES: COc1ccc(-c2cccc(F)c2)c2[nH]c(NC(=O)c3c[nH]cn3)nc12 [compound 265, N-[7-(3-fluorophenyl)-4-methoxy-1H-1,3-benzodiazol-2-yl]-1H-imidazole-4-carboxamide]
- IC50 [1]: < 100 nM
- IC50 [2]: < 1000 nM
- IC50 [3]: < 10 nM
- IC50 [4]: < 1000 nM

SMILES: COc1ccc(-c2ccccc2)c2nc(NC(=O)c3cn(C)nc3C)[nH]c12 [compound 269, N-(7-methoxy-4-phenyl-1H-1,3-benzodiazol-2-yl)-1,3-dimethyl-1H-pyrazole-4-carboxamide]
- IC50 [1]: < 100 nM
- IC50 [2]: < 1000 nM
- IC50 [3]: < 100 nM
- IC50 [4]: > 1000 nM
